Experiment [1] relates to mutant HTT. Put plainly: Mutant HTT protein level in HD-Drosophila by Western blotting. It is filed as in vivo, Drosophila melanogaster. The settings on record: 10 μM 6CR plus 100 μM Tropolone in media, fly heads. As for the experimental part: For Drosophila samples, 15 males and 15 females HD flies were collected after each compound treatment. Their heads were isolated and homogenized with 1× sample buffer (50 mM Tris-HCl pH 7.5, 150 mM NaCl, 1% NP-40, 0.1% sodium dodecyl sulfate (SDS), 1% sodium deoxycholate, and blue dye) for protein lysate collection. Equivalent amounts of protein lysates were separated on 12% SDS-polyacrylamide gel, and then transferred to NC membranes (GE Healthcare Life Science). Detection of HTT and α-tubulin protein was performed as described above.
In each compound treatment experiment, 15 Gmr-ga14-UAS-HTT97Q/cyo male flies were crossed with 15 Gmr-ga14-UAS-HTT-97Q/cyo females in a vial containing 10 mL of media supplemented with the testing compound at a final concentration of 10 μM 6CR (Sigma) or/and 100 μM Tropolone (Sigma). […] In each treatment group, flies were analyzed and normalized with control flies. […]
(§1) Please refer to FIG. 8. […] After parent fly removal, the 4-day-old progenies carrying one Gmr-ga14-UAS-HTT97Q allele were collected and analyzed for eye morphology. […] 4-day-old progenies as described above were collected and analyzed the levels of mutant HTT by Western blotting. α-tubulin was included and served as a loading control. […]
A general note: A western blot detects proteins with antibodies after separation by electrophoresis.

In experiment [2] the test system is human RNases H. Particulars: Budihas et al, 2005; read-out: IC50, inhibition of enzymatic activity of human RNases H; cited from earlier work.
Experiment [3] concerns HD-Drosophila expressing mutant HTT97Q. Kind of experiment: Rough eye phenotype in HD-Drosophila (Gmr-HTT97Q). It counts as in vivo, Drosophila melanogaster. Particulars: 10 μM 6CR plus 100 μM Tropolone in media. As for the experimental part: The Gmr-ga14-UAS-HTT97Q/cyo line expressing HTT97Q under the control of Gmr-gal4 in compound eyes was provided by MT SU (National Taiwan Normal University, Taipei, Taiwan). Fly stock was maintained and crossed at 25° C. on a standard cornmeal yeast agar medium.
In each compound treatment experiment, 15 Gmr-ga14-UAS-HTT97Q/cyo male flies were crossed with 15 Gmr-ga14-UAS-HTT-97Q/cyo females in a vial containing 10 mL of media supplemented with the testing compound at a final concentration of 10 μM 6CR (Sigma) or/and 100 μM Tropolone (Sigma). 6-chloropurine riboside (6CR) is a chemical reagent that inhibits the activity of SUPT4H by preventing the complex formation of SUPT4H/SUPT5H (Patent No.: US2018/0064744A1). Parent flies were removed after 7 days, and 4-day-old progenies carrying one Gmr-ga14-UAS-HTT97Q allele were collected for eye morphology examination. […] In each treatment group, flies were analyzed and normalized with control flies. […]
as §1

These results are taken from patent US11891601B2, “Method to enhance the transcription regulation of SUPT4H on genes containing repetitive nucleotide sequences” (National Yang-Ming University, priority 2018, dated 2024).

By IC50 is commonly meant the concentration needed to halve the response being measured. Regarding `O=c1cccccc1O` [Tropolone], in experiment [1], the “level of mutant HTT, 6CR with co-treatment of Tropolone” value was “decreased accordingly”. Moreover, the IC50 in experiment [2] is 5.7 µM. Moreover, in experiment [3], the “rescue effect of rough eye phenotype by 6CR with co-treatment of Tropolone” value is on record as “greatly improved”.
